Data reported in paper PMC7070167, “Cell‐permeable high‐affinity tracers for Gq proteins provide structural insights, reveal distinct binding kinetics and identify small molecule inhibitors” (British Journal of Pharmacology, 2020).
Like-named read-outs stand apart in the source and are kept apart here. *1 amine or outer side, *2 acyl side, *3 side chain or, on linkers, in order; H or OH if unused. Where a SMILES comes first, the peptide text is derived from it. Bridges are numbered along the chain shown (N, C = ends). [ ]: non-standard residue; d: D form. The star is where a group is joined. Leu(3R-O(AcLeu(3R-OH))) = CC(=O)N[C@H](C(=O)O[C@H](C(C)C)[C@H](N)C(=O)O)[C@H](O)C(C)C; Leu(3R-OH,Nα-propionyl) = CCC(=O)N[C@H](C(=O)*)[C@H](O)C(C)C; X1 = CC(C)[C@@H](O[*:3])[C@H](N[*:1])C(=O)[*:2]; NMeT = CN[C@H](C(=O)O)[C@@H](C)O; dPhLac = O=C(O)[C@H](O)Cc1ccccc1; NMeA = CN[C@@H](C)C(=O)O; NMeDha = C=C(NC)C(=O)O

Tests used:
[1] = tested on: Gq signalling via endogenously expressed M3 receptor; assay: Calcium mobilization assay, carbachol-induced (M3 receptor) in 1321N1 astrocytoma cells; assay type: cell-based, human; settings: Homo sapiens, versus Carbachol (EC80), M3 receptor, read-out: pIC50, inhibition of calcium mobilization (converted)
Method: The functional activity of YM, FR, and Ebselen as Gq protein inhibitors was determined by assessing their ability to antagonize ADP‐induced calcium mobilization in 1321N1 astrocytoma cells stably transfected with the human P2Y1 receptor, which is a Gq‐coupled receptor. In addition, the compounds' inhibitory effects on Carbachol‐induced calcium mobilization were studied in the same cell line, which endogenously express the Gq‐coupled muscarinic M3 ACh receptor. The assays were performed according to a previously described procedure (Rafehi et al., 2017) using a NOVOstar microplate reader (BMG Labtech, Offenburg, Germany).

[2] = biological target: T1, Gq proteins (Homo sapiens, UniProt P50148); assay: Competition binding at intact human platelets; settings: 37°C
T1 construct: Native cell membrane preparations from rat brain cortex and human blood platelets; host or cells: human platelets (intact suspension or membrane preparation)
T1 sequence (P50148 1-359): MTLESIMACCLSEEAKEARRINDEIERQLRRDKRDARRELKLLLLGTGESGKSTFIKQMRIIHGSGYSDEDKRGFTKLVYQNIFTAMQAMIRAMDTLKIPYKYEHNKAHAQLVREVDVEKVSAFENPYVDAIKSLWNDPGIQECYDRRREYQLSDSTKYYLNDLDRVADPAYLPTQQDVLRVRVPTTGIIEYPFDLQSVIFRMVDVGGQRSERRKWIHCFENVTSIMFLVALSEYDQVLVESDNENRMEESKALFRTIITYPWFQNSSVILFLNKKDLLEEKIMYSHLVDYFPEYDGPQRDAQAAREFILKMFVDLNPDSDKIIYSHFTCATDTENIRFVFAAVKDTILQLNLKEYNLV
Method: Apheresis‐purified human thrombocyte‐plasma concentrates (PRP) were obtained from the blood bank, University of Bonn, in accordance with ethical guidelines, and directly used. For radioligand binding assays, they were diluted with 50‐mM Tris–HCl buffer, pH 7.4, to obtain a concentration of 7.5 × 10^6 platelets/50 μl (corresponding to a 1:10 dilution).
The experiments were performed in 50‐mM Tris–HCl buffer, pH 7.4. The final assay volume of 200 μl contained 5 μl of test compound in DMSO, 50 μl of [^3H]PSB‐15900 or [^3H]PSB‐16254, respectively, in buffer, 5 nM of final concentration, and 100 μl of human platelet membrane preparation (50 μg of protein) or intact human platelets (7.5 × 10^6 cells/vial). Non‐specific binding was determined in the presence of 5‐μM FR. The incubation was started by the addition of membrane preparation and was performed at 37°C for 1 hr with gentle shaking. It was terminated by rapid vacuum filtration through GF/C glass‐fibre filters using a Brandel 24‐well harvester. The filters were rinsed three times with approximately 3 ml each of ice‐cold Tris–HCl buffer, 50 mM, pH 7.4 containing 0.1% Tween 20 and 0.1% BSA, to separate bound from free radioligand. The filters were punched out and transferred to scintillation vials. Luma Safe® scintillation cocktail (2.5 ml) was added, and after 6 hr of incubation, the samples were counted for 1 min each, using a liquid scintillation counter (counting efficiency 53%). Experiments in the presence of GTP were additionally performed after preincubation of the membrane preparation with GTP for 1 hr. pIC50 and pKi values were calculated using equations for one‐site competition as implemented in GraphPad Prism 6.01 (GraphPad Inc., La Jolla, CA, USA).

[3] = versus [^3H]PSB‐15900 (5 nM), read-out: pKi (converted)
[4] = versus [³H]PSB-15900 (5 nM), read-out: Ki

C=C1C(=O)N[C@@H](C)C(=O)N(C)[C@@H](C)C(=O)N[C@@H]([C@H](OC(=O)[C@@H](NC(=O)CC)[C@H](O)C(C)C)C(C)C)C(=O)N(C)[C@@H]([C@@H](C)OC)C(=O)O[C@H](C(C)C)[C@H](NC(C)=O)C(=O)O[C@H](Cc2ccccc2)C(=O)N1C [FR, FR900359] (Ac-[X1][dPhLac][NMeDha]A[NMeA][X1](Leu(3R-OH,Nα-propionyl))[NMeT](Me); ester 1-C)
IC50 [1]: 0.741 nM
Ki [2, 3]: 2.09 nM
Ki [2, 4]: 2.14 ± 0.87 nM

C=C1C(=O)N[C@@H](C)C(=O)N(C)[C@@H](C)C(=O)N[C@@H]([C@H](OC(=O)[C@@H](NC(C)=O)[C@H](O)C(C)C)C(C)C)C(=O)N(C)[C@@H]([C@@H](C)OC)C(=O)O[C@H](C)[C@H](NC(C)=O)C(=O)O[C@H](Cc2ccccc2)C(=O)N1C [YM, YM‐254890] (Ac-T[dPhLac][NMeDha]A[NMeA][Leu(3R-O(AcLeu(3R-OH)))][NMeT](Me); ester 1-C)
IC50 [1]: 0.891 nM
Ki [2, 3]: 2.09 nM
Ki [2, 4]: 2.29 ± 0.38 nM
